Measurements: paper PMC6005341, “Identification of “sarsasapogenin-aglyconed” timosaponins as novel Aβ-lowering modulators of amyloid precursor protein processing” (Chemical Science, 2016)

Tests used:
[1] = system: animal models of dementia; set-up: method as in PMID 19426756, PMID 16226729, PMID 17566650; conditions: oral administration; cited from earlier work
Neuro-2A cells = experiment: Neurite outgrowth, type III β-tubulin immunostaining; type: cell-based; conditions: at concentrations that lower Aβ production, 18 h
Method: Immunofluorescence examination of neurite outgrowth: Neuro-2A cells were seeded at 1×105 per glass bottom dishes. After treatment, cells were fixed with 4% paraformaldyde for 10 min, permeabilized with 0.1% Triton X-100, and then blocked with 1% BSA in PBS.
The cells were incubated with monoclonal antibody raised against type III β-tubulin (Sigma) for 1 h followed by Alexa488 conjugated secondary antibody. Neurite morphology was examined under fluorescence microscope. […]

[2] = system: APP processing in N2A-APPswe cells; experiment: Immunoblot of APP processing in N2A-APPswe cells; type: cell-based
Excerpt: Reagents: All reagents were of analytical grade (purity > 98%) and were purchased from Sigma-Aldrich Chemical Co. unless otherwise specified. SSG (1) was purchased from Wako Pure Chemical Industries, Ltd. Diosgenin (6), Dioscin (9), Polyphyllin D (10), Timosaponin BI (22) and Timosaponin BII (23) were purchased from Chengdu Must Bio-Technology Co.
Ltd. Yamogenin (7) was bought from Ambinter c/o Greenpharma while Smilagenin (24) was bought from Steraloids Inc. Substances dissolved in DMSO as stock solutions. Cell culture medium constituents were purchased from Life Technologies, Inc.
Cell culture: Neuro-2A cells expressing Swedish mutants of APP (N2A-APPswe provided by Prof. Yifan Han, The Hong Kong Polytechnic University)1 was cultured in minimal essential medium with 2 mM glutamine, 2 mM pyruvate and 10% fetal bovine serum. Cells were seeded at 6-well plate at 1×106 cells/mL and grown for two days until confluence. […]
Immunoblot analysis: Cells were washed with phosphate buffered saline and lysed with buffer containing 50 mM Tris-Cl, pH 7.4, 150 mM NaCl, 1% Triton X-100 supplemented with protease inhibitors. Equal amount of proteins (30 µg) was resolved by 16.5% Tris-tricine gels and then transferred to nitrocellulose membrane with 0.2 µm pore size. For detection of secreted Aβ, sAPPα and  sAPPβ, cells were treated with the timosaponins for 8 h in complete medium which were then replaced with medium containing 0.1% FBS. After further incubation of 16 h, 50 µL of the conditioned medium was mixed with SDS sample buffer and resolved accordingly. The membrane was blocked with Tris-buffered saline containing 0.1% Tween 20 and 3% BSA and then incubated with primary antibodies at 4 °C overnight, followed with appropriate secondary antibodies for 2 h. The primary antibodies were: APP c-terminal rabbit antibody (1:5000; Merck Bioscience) for detection of full length APP and APP-CTFs, mouse monoclonal 6E10 (Covance) for secreted Aβ and sAPPα,  mouse monoclonal 6A1 (IBL) for sAPPβswe, ADAM-10 rabbit antibody (Millipore) and BACE1

Aβ42 levels in the brain = experiment: In vivo brain Aβ42 level by ELISA after oral dosing; conditions: 100 mg kg^–1 oral gavage, three times in 2 days, 3–5 month old C57BL/6 mice
Method: was performed at least three times. The lowest binding scores were computed and the conformations of the corresponding binding pose presented.
Quantum mechanics/Molecular mechanics. The binding between transmembrane and substrate was further optimized using the QM/MM approach and NWChem software. The quantum part (QM) included TAIII (total 116 atoms), while the rest of the system was modelled as the molecular mechanics (MM) level. The QM region was treated at the DFT level using the B3LYP method. The 6-31G* Pople basis set was employed for all the atoms.
The transmembrane was described with the AMBER parm99 force field. The binding structure was solvated in a cubic box with 6872 classical SPC/E water molecules. Three negative counter ions (Cl-) were added to neutralize the charges in the system. The structure was optimized by performing the BFGS algorithm for the QM part and the steepest descent algorithm for the MM part. The optimization of these two regions (QM and MM) was alternated until self-consistency was reached.
Animal experiments: Male C57BL/6N mice were housed in environmentally controlled room (temperature: 25 ± 2 °C, humidity: 50 ± 5%, 12-h light-dark cycle) in Laboratory Animal Unit, The University of Hong Kong and were freely access to food and water. TAIII, TAI SSG and compound 34 were dissolved in 5% Tween 80 and given to the mice by oral gavage at three repeated doses of 100 mg/kg in 48 hours. Mice were administrated with 5% Tween 80 (control group), TAIII, TAI SSG and 34. The experimental procedures were performed with the approval of Committee of Use of Live Animal for Teaching and Research of The University of Hong Kong. Blood (about 600-800 µL) was collected by cardiac puncture and added with 1/10 volume of Na2EDTA (20 mg/mL) to prevent coagulation. After centrifugation at 3000 g for 15 min at 4 °C, plasma was transferred to a centrifuge tube. […] Both plasma and brain samples were stored at -80 °C until they were analyzed. The Aβ42 levels were determined by Wako High Sensitive Aβx-42 ELISA kit. […]

purified BACE1 = target: T1, purified BACE1 (Homo sapiens, UniProt P56817); experiment: β-Secretase assay with purified BACE1; type: biochemical
T1 construct: purchased Millipore
T1 sequence (P56817 46-501, species assumed): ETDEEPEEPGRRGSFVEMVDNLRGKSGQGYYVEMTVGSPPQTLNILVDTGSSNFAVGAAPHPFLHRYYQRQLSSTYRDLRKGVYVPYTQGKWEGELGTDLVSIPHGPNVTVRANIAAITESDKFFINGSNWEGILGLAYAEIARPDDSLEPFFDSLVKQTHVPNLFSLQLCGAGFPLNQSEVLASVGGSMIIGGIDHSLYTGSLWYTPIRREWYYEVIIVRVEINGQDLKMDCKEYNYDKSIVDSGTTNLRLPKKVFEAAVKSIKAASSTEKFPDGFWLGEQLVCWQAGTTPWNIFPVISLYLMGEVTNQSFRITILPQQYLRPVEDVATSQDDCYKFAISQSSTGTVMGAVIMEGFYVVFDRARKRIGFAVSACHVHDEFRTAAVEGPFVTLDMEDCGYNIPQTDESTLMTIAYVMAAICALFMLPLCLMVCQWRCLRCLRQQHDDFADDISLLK
Method: mM MES, pH5.5. Protein extracts (10 µg) were incubated with testing compounds or vehicle for 1 h at room temperature. The β-secretase activities were assayed by adding 10 µM fluorogenic β-secretase substrate (Millipore) to the reaction mixtures and the fluorescence (excitation, 380; emission, 460) were measured. β-Secretase assays were also performed using purified BACE1 (Millipore) at 100 ng in a buffer containing 50 mM MES, pH 5.5. […]

Structure (SMILES)	memory dysfunction [1]	neurite outgrowth (Neuro-2A cells)	sAPPα levels ([2]; 100 μM)	α-CTF and β-CTF expression ([2]; 100 μM)	expression of ADAM-10 [2]	expression of the β-secretase BACE1 [2]	α-secretase-cleaved CTF (C-83) and secreted APPα ([2]; 10 μM)	expression of full length APP ([2]; 18 h)	levels of β-secretase-cleaved CTF (C-99) and secreted APPβ ([2]; concentration-dependent)	reduction of Aβ42 levels in the brain (Aβ42 levels in the brain)	activities of purified BACE1 (purified BACE1)
C[C@H]1CC[C@@]2(OC1)O[C@H]1C[C@H]3[C@@H]4CC[C@@H]5C[C@@H](O)CC[C@]5(C)[C@H]4CC[C@]3(C)[C@H]1[C@@H]2C [SSG (1), sarsasapogenin]	improve	markedly stimulated	marked increase	increased	–	–	–	–	–	–	–
C[C@H]1CC[C@@]2(OC1)O[C@H]1C[C@H]3[C@@H]4CC[C@@H]5C[C@@H](O[C@@H]6O[C@H](CO)[C@H](O)[C@H](O)[C@H]6O[C@@H]6O[C@H](CO)[C@@H](O)[C@H](O)[C@H]6O)CC[C@]5(C)[C@H]4CC[C@]3(C)[C@H]1[C@@H]2C [TAIII (2), timosaponin A III]	improve	–	–	–	did not alter	did not affect	increased	did not elicit a change	decreased	83% ± 13%	did not affect
C[C@H]1CC[C@@]2(OC1)O[C@H]1C[C@H]3[C@@H]4CC[C@@H]5C[C@@H](O[C@@H]6O[C@H](CO)[C@H](O)[C@H](O)[C@H]6O)CC[C@]5(C)[C@H]4CC[C@]3(C)[C@H]1[C@@H]2C [TAI (3), timosaponin A I]	–	–	–	–	–	–	–	–	–	87% ± 14%	–
